Source: patent US11912693B2, “Compounds for modulating S1P1 activity and methods of using the same” (TREVENA, INC., priority 2017, dated 2024)

Key:
[1] = target: sphingosine-1-phosphate receptor 5 (S1P5) (Homo sapiens (Human), UniProt Q9H228); assay: Inhibition of cAMP production (HTRF), S1P5 CHO-K1 cells; assay type: cell-based; conditions: for hS1P5 cAMP pEC50: inhibition of cAMP production; for Emax: CHO-K1, efficacy normalized to fingolimod, read-out: hS1P5 cAMP SPAN
[2] = target: human sphingosine-1-phosphate receptor 3 (S1P3) (Homo sapiens (Human), UniProt Q99500); assay: Inhibition of cAMP production (HTRF), S1P3 CHO-K1 cells; assay type: cell-based; conditions: for hS1P3 cAMP pEC50: inhibition of cAMP production; for Emax: CHO-K1, efficacy normalized to fingolimod, read-out: hS1P3 cAMP SPAN
human sphingosine-1-phosphate receptor 3 (S1P3), sequence (Q99500 whole entry): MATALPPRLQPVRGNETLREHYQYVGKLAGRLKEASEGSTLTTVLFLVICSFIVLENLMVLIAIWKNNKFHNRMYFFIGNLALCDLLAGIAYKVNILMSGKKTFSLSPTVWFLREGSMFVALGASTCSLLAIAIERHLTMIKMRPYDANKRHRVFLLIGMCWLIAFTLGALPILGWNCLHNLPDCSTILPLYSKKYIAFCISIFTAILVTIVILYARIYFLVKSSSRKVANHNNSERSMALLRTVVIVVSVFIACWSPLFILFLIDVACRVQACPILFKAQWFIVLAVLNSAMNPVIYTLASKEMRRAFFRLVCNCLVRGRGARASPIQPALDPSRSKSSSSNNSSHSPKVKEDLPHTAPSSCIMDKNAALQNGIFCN

[3] = target: human sphingosine-1-phosphate receptor 1 (S1P1) (Homo sapiens (Human), UniProt P21453); assay: Inhibition of cAMP production (HTRF cAMP HiRange), S1P1 CHO-K1 cells; assay type: cell-based; conditions: for hS1P1 cAMP pEC50: inhibition of cAMP production, S1P1 CHO-K1 cells; for Emax: CHO-K1, efficacy (SPAN) normalized to fingolimod, read-out: hS1P1 cAMP SPAN
human sphingosine-1-phosphate receptor 1 (S1P1), sequence (P21453 whole entry, looked up): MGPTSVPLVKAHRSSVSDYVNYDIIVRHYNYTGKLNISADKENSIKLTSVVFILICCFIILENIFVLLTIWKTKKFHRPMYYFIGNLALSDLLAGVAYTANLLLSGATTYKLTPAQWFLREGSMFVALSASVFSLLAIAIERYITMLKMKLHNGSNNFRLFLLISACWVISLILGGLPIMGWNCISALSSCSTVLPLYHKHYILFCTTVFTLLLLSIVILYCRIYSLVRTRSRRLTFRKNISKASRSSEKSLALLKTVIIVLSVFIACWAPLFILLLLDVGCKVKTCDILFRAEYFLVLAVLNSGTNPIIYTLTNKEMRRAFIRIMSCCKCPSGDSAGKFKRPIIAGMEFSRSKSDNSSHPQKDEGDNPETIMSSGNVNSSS
How it was run: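 CHO-K1 cells stably co-expressing human S1P1 (C-terminal Prolink tag) and EA-β-arrestin2 were grown in AssayComplete Media 6 at 37° C. and 5% CO2, plated, and incubated overnight. Agonist-driven inhibition of intracellular cAMP was read by TR-FRET with the HTRF cAMP HiRange kit on a PheraStar reader. Potency is pEC50, and efficacy (SPAN) is normalized to fingolimod.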

[4] = tested on: paclitaxel induced peripheral neuropathy; assay: Reversal of allodynia induced by paclitaxel in mice (s.c. or p.o., von Frey frequency method); assay type: in vivo, c57bl/6 mice; conditions: Mus musculus; for inhibition in vivo at 3 mg/kg: po, 1 h, 3 mg/kg p.o., tested 60 min after dosing, read-out: Screen @ 3 mg/kg po (% MPE); for inhibition in vivo at 1 mg/kg: sc, 0.5 h, 1 mg/kg s.c., tested 30 min after dosing, read-out: Screen @ 1 mg/kg sc (% MPE)
How it was run: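 Neuropathy was induced in mice by paclitaxel (6 mg/kg i.p., days 1, 3, 5, 7) or oxaliplatin (4 mg/kg i.p., days 1-5), with re-testing about 14 days later. Compounds were given s.c. (tested at 30 min) or p.o. (tested at 60 min; paclitaxel only). A 0.4 g von Frey filament was applied ten times per paw, and % non-response was converted to % MPE.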

sphingosine-1-phosphate receptor 5 (S1P5), sequence (Q9H228 whole entry): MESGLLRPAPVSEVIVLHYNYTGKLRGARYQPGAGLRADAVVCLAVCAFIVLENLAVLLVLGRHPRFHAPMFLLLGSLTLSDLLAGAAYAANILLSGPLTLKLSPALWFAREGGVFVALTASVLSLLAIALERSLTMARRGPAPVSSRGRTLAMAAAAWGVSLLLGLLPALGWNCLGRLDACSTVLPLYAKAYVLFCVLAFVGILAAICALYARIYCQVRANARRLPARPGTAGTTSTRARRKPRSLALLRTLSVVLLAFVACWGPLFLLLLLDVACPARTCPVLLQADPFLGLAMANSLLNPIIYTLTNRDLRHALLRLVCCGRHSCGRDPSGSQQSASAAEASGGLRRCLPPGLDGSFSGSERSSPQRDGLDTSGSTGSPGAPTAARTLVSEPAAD

With COc1ccc(-c2noc(-c3ccc4c(c3)nnn4CC(C)(C)O)n2)c(C)c1 [Compound 26, 1-{5-[3-(4-methoxy-2-methylphenyl)-1,2,4-oxadiazol-5-yl]-1H-1,2,3-benzotriazol-1-yl}-2-methylpropan-2-ol] the “hS1P5 cAMP pEC50” value [1] was <5.0, the “hS1P3 cAMP pEC50” value [2] was <5.0 and the “hS1P1 cAMP pEC50” value [3] was >6.5. For the same compound, the inhibition in vivo at 3 mg/kg [4] was < 50% and the inhibition in vivo at 1 mg/kg [4] was < 50%.
In the case of Cc1ccccc1-c1nc(-c2ccc3c(c2)nnn3C(C)C)no1 [Compound 99, 3-(1-isopropyl-1H-benzo[d][1,2,3]triazol-5-yl)-5-(o-tolyl)-1,2,4-oxadiazole], the “hS1P5 cAMP pEC50” value [1] is reported as <5.0, the “hS1P3 cAMP pEC50” value [2] is reported as <5.0 and the “hS1P1 cAMP pEC50” value [3] is reported as >6.5. The inhibition in vivo at 3 mg/kg [4] was > 50% and the inhibition in vivo at 1 mg/kg [4] was > 50%.
For CCC1(CC)CC(=O)c2cc(-c3nc(-c4cccnc4)no3)ccc2O1 [Compound 103, 2,2-diethyl-6-[3-(pyridin-3-yl)-1,2,4-oxadiazol-5-yl]-3,4-dihydro-2H-1-benzopyran-4-one], the Emax [1] was < 50%, the “hS1P5 cAMP pEC50” value [1] was <5.0 and the Emax [2] was < 50%. The “hS1P3 cAMP pEC50” value [2] was <5.0, the Emax [3] was > 75% and the “hS1P1 cAMP pEC50” value [3] was >6.5. For the same compound, the inhibition in vivo at 3 mg/kg [4] was > 50% and the inhibition in vivo at 1 mg/kg [4] was > 50%.
In the case of CCC1(CC)CC(=O)c2cc(-c3nc(-c4cccnc4OC)no3)ccc2O1 [Compound 147, 2,2-diethyl-6-(3-(2-methoxypyridin-3-yl)-1,2,4-oxadiazol-5-yl)chroman-4-one], the Emax [1] is reported as < 50%, the “hS1P5 cAMP pEC50” value [1] is reported as >5.0 and the Emax [2] is reported as < 50%. The “hS1P3 cAMP pEC50” value [2] was <5.0, the Emax [3] was > 75% and the “hS1P1 cAMP pEC50” value [3] was >6.5. The inhibition in vivo at 1 mg/kg [4] was > 50%.
CCC1(CC)CC(=O)c2cc(-c3nc(-c4ccncc4OC)no3)ccc2O1 [Compound 212, 2,2-diethyl-6-(3-(3-methoxypyridin-4-yl)-1,2,4-oxadiazol-5-yl)chroman-4-one] was tested, and the Emax [1] was < 50%, the “hS1P5 cAMP pEC50” value [1] was <5.0 and the Emax [2] was < 50%. For the same compound, the “hS1P3 cAMP pEC50” value [2] was <5.0, the Emax [3] was > 75% and the “hS1P1 cAMP pEC50” value [3] was >6.5. The inhibition in vivo at 1 mg/kg [4] was > 50%.
For COc1ccccc1-c1nc(-c2ccc3c(c2)nnn3C(C)C)no1 [Compound 287, 3-(1-isopropyl-1H-benzo[d][1,2,3]triazol-5-yl)-5-(2-methoxyphenyl)-1,2,4-oxadiazole], the “hS1P5 cAMP pEC50” value [1] was <5.0, the “hS1P3 cAMP pEC50” value [2] was <5.0 and the “hS1P1 cAMP pEC50” value [3] was >6.5. The inhibition in vivo at 1 mg/kg [4] was < 50%.
Cc1ccccc1-c1noc(-c2ccc3c(c2)nnn3C(C)C)n1 [Compound 293, 5-[3-(2-methylphenyl)-1,2,4-oxadiazol-5-yl]-1-(propan-2-yl)-1H-1,2,3-benzotriazole] was tested, and the Emax [1] was > 50%, the “hS1P5 cAMP pEC50” value [1] was <5.0 and the Emax [2] was < 50%. For the same compound, the “hS1P3 cAMP pEC50” value [2] was <5.0, the Emax [3] was > 75% and the “hS1P1 cAMP pEC50” value [3] was >6.5. For the same compound, the inhibition in vivo at 1 mg/kg [4] was > 50%.
For CC(C)n1nnc2cc(-c3nc(-c4cccc5c4OCCC5)no3)ccc21 [Compound 304, 3-chroman-8-yl-5-(1-isopropylbenzotriazol-5-yl)-1,2,4-oxadiazole], the “hS1P5 cAMP pEC50” value [1] was <5.0, the “hS1P3 cAMP pEC50” value [2] was >5.0 and the “hS1P1 cAMP pEC50” value [3] was >6.5. For the same compound, the inhibition in vivo at 1 mg/kg [4] was > 50%.
CC(C)n1nnc2cc(-c3nc(-c4ccncc4C(F)(F)F)no3)ccc21 [Compound 455, 1-(propan-2-yl)-5-{3-[3-(trifluoromethyl)pyridin-4-yl]-1,2,4-oxadiazol-5-yl}-1H-1,2,3-benzotriazole] was tested, and the Emax [2] was < 50%, the “hS1P3 cAMP pEC50” value [2] was <5.0 and the Emax [3] was > 75%. The “hS1P1 cAMP pEC50” value [3] was >6.5 and the inhibition in vivo at 3 mg/kg [4] was > 50%.
With CCC1(CC)CC(=O)c2cc(-c3nc(-c4cn[nH]c4)no3)ccc2O1 [Compound 469, 6-(3-(1H-pyrazol-4-yl)-1,2,4-oxadiazol-5-yl)-2,2-diethylchroman-4-one] the Emax [3] was > 75%, the “hS1P1 cAMP pEC50” value [3] was >6.5 and the inhibition in vivo at 3 mg/kg [4] was > 50%.
